Experimental data from patent publication US9095161B2, “Preparation and use of methionylmethionine as feed additive for fish and crustaceans” (EVONIK DEGUSSA GmbH, priority 2008, dated 2015).

How the values were obtained:
[1] = Leaching characteristics from feed pellets under water; type: physicochemical; details: for dissolved out of feed pellets under water: 20.0 g pellets in 200 g water, 20° C.; for leaching compared with DL-methionine, MHA and calcium-MHA: compound feed pellets under water, identical conditions
Source text: The feed matrix used was a methionine-deficient feed mixture of conventional ingredients such as, for example, soybean meal, soybean oil, cornstarch, wheat meal, fish meal, cellulose, crystalline essential amino acids and minerals and vitamins as premixes. This mixture was then supplemented batchwise in 20 kg batches in each case with the methionine derivatives stated in table 5, with a 0.25% supplementation rate (based on sulfur equivalents), and was homogenized and then pelleted with steam treatment. As comparison with methionylmethionine (I), a pelleting experiment was carried out in each case with DL-methionine, MHA (methionine hydroxy analog) and calcium MHA. In addition, a control experiment was carried out by pelleting without addition of a methionine derivative (see table 5). The leaching characteristics of the diastereomers of methionylmethionine (I) from the feed pellets was then investigated under water. In this case, the dissolving out of methionylmethionine under water as a function of time, temperature, water composition (salt or fresh water) was determined. […] All the Erlenmeyer flask was subsequently agitated continuously with a laboratory shaker at a constant temperature of 20° C. Then, at defined time intervals, a sample of water was removed in each case and the content of the individual pairs of methionylmethionine diastereomers in the water was determined by HPLC (see table 7). For comparison, in each case the feed pellets supplemented with DL-methionine, MHA or calcium MHA were investigated under the same conditions and thus their leaching characteristics under water determined under the respective conditions (see FIG. 5 and table 7).

[2] = system: enzyme cocktail of digestive and liver enzymes from carp
Method: The method for isolating the digestive enzymes was based on that of EID and MATTY (Aquaculture 1989, 79, 111-119). […] To isolate liver enzymes, the livers were isolated, homogenized and treated in analogy to the processing of the intestinal enzymes in example 22. The procedure for enzyme isolation from the pancreas was also analogous thereto.
D-Methionine was taken up in buffer solution, and the enzyme solution was added. A blank without enzyme solution was made up in each case as comparison and for estimating the purely chemical transformation rate. After 24 hours, a sample was taken and the composition was detected and quantified with the aid of calibrated HPLC.

Litopenaeus vannamei = details: feeding experiments; cited from earlier work
[3] = Stability during pelleting and steam treatment of the feed mixture; type: physicochemical; details: mixtures with natural protein and carbohydrate sources
Source text: The feed matrix used was a methionine-deficient feed mixture of conventional ingredients such as, for example, soybean meal, soybean oil, cornstarch, wheat meal, fish meal, cellulose, crystalline essential amino acids and minerals and vitamins as premixes. This mixture was then supplemented batchwise in 20 kg batches in each case with the methionine derivatives stated in table 5, with a 0.25% supplementation rate (based on sulfur equivalents), and was homogenized and then pelleted with steam treatment. As comparison with methionylmethionine (I), a pelleting experiment was carried out in each case with DL-methionine, MHA (methionine hydroxy analog) and calcium MHA. In addition, a control experiment was carried out by pelleting without addition of a methionine derivative (see table 5). In this case, the amino acid determination was based on EU method 98/64/EC. After extraction of the free amino acids and methionylmethionine (I), these were subsequently determined with the aid of an amino acid analyzer by post-column derivatization with ninhydrin (see table 6).

chickens = details: cited from earlier work

CSCCC(N)C(=O)NC(CCSC)C(=O)O (stereo not drawn) [DL/LD-I, DL/LD-methionylmethionine]
dissolved out of feed pellets under water ([1]; Time 0): 0.6%
dissolved out of feed pellets under water ([1]; Time 5): 0.7%
dissolved out of feed pellets under water ([1]; Time 10): 0.9%
dissolved out of feed pellets under water ([1]; Time 15): 0.6%
dissolved out of feed pellets under water ([1]; Time 30): 0.6%
dissolved out of feed pellets under water ([1]; Time 60): 1.7%
dissolved out of feed pellets under water ([1]; Time 120): 1.7%
dissolved out of feed pellets under water ([1]; Time 210): 3.8%
maximum dissolved out of the feed pellets ([1]; after a residence time of 200 min): ≤ 5%
leaching compared with DL-methionine, MHA and calcium-MHA [1]: distinctly less leaching

CSCCC(N)C(=O)NC(CCSC)C(=O)O (stereo not shown) [LL/DD-I, DD/LL-methionylmethionine]
dissolved out of feed pellets under water ([1]; Time 0): 2.7%
dissolved out of feed pellets under water ([1]; Time 5): 3.7%
dissolved out of feed pellets under water ([1]; Time 10): 6.5%
dissolved out of feed pellets under water ([1]; Time 15): 7.7%
dissolved out of feed pellets under water ([1]; Time 30): 12.1%
dissolved out of feed pellets under water ([1]; Time 60): 20.6%
dissolved out of feed pellets under water ([1]; Time 120): 27.4%
dissolved out of feed pellets under water ([1]; Time 210): 35.9%
leaching compared with DL-methionine, MHA and calcium-MHA [1]: distinctly less leaching

CSCC[C@@H](N)C(=O)O [D-methionine]
biotransformation of D-methionine to L-methionine [2]: may be transformed into L-methionine

CSCCC(N)C(=O)O (racemic) [Methionine, DL-methionine]
dissolved out of feed pellets under water ([1]; Time 0): 4.0%
dissolved out of feed pellets under water ([1]; Time 5): 12.0%
dissolved out of feed pellets under water ([1]; Time 10): 16.0%
dissolved out of feed pellets under water ([1]; Time 15): 24.0%
dissolved out of feed pellets under water ([1]; Time 30): 39.9%
dissolved out of feed pellets under water ([1]; Time 60): 59.9%
dissolved out of feed pellets under water ([1]; Time 120): 79.8%
dissolved out of feed pellets under water ([1]; Time 210): 87.8%
activity as feed additive compared with L-methionine (Litopenaeus vannamei): same activity as L-methionine

CSCCC(O)C(=O)[O-].CSCCC(O)C(=O)[O-].[Ca+2] (stereo not shown) [MHA-Ca, reference compound]
dissolved out of feed pellets under water ([1]; Time 0): 8.6%
dissolved out of feed pellets under water ([1]; Time 5): 16.5%
dissolved out of feed pellets under water ([1]; Time 10): 28.2%
dissolved out of feed pellets under water ([1]; Time 15): 39.4%
dissolved out of feed pellets under water ([1]; Time 30): 61.7%
dissolved out of feed pellets under water ([1]; Time 60): 82.4%
dissolved out of feed pellets under water ([1]; Time 120): 94.1%
dissolved out of feed pellets under water ([1]; Time 210): 97.0%

CSCCC(N)C(=O)NC(CCSC)C(=O)O (mixture of isomers) [LL/DD/LD/DL-I, DL-methionyl-DL-methionine]
dissolved out of feed pellets under water ([1]; Time 0): 1.5%
dissolved out of feed pellets under water ([1]; Time 5): 2.0%
dissolved out of feed pellets under water ([1]; Time 10): 3.2%
dissolved out of feed pellets under water ([1]; Time 15): 3.6%
dissolved out of feed pellets under water ([1]; Time 30): 5.4%
dissolved out of feed pellets under water ([1]; Time 60): 9.5%
dissolved out of feed pellets under water ([1]; Time 120): 12.3%
dissolved out of feed pellets under water ([1]; Time 210): 17.0%
leaching compared with DL-methionine, MHA and calcium-MHA [1]: distinctly less leaching
stability during pelleting, extrusion and steam treatment [3]: stable
stability during pelleting, extrusion and steam treatment ([3]; listed as DL-methionyl-DL-methionine (I)): absolutely stable
stability during pelleting, extrusion and steam treatment ([3]; listed as methionylmethionine (I)): remained stable

poly-L-methionine
biological value (chickens): lack of biological value

CSCCC(O)C(=O)O (racemic) [MHA, rac-2-hydroxy-4-(methylthio)butanoic acid, reference compound]
dissolved out of feed pellets under water ([1]; Time 0): 6.0%
dissolved out of feed pellets under water ([1]; Time 5): 12.8%
dissolved out of feed pellets under water ([1]; Time 10): 20.8%
dissolved out of feed pellets under water ([1]; Time 15): 28.8%
dissolved out of feed pellets under water ([1]; Time 30): 50.5%
dissolved out of feed pellets under water ([1]; Time 60): 75.4%
dissolved out of feed pellets under water ([1]; Time 120): 94.1%
dissolved out of feed pellets under water ([1]; Time 210): 99.9%
